Experimental data reported in patent US20230312587A1, “PTERIDINONE COMPOUNDS AND USES THEREOF” (Vertex Pharmaceutical Incorporated, priority 2018, published 2023).

test system: β-catenin-TCF-mediated reporter transcription activity in Colo 205 cells; experiment: Colo 205 reporter assay (TCF/LEF luciferase); type: cell-based; details: Colo 205 TCF/LEF luciferase reporter, five hours after addition of compound; read-out: TCF reporter Colo205 IC50
Procedure, shortened: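 Luciferase signal from a TCF/LEF-driven reporter, stably integrated in Colo 205 colon cancer cells, was measured 5 h after compound addition.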

| Compound | IC50 |
| --- | --- |
| Cc1nc(N[C@H]2CO[C@H](COc3cc(F)c(F)c(F)c3)C2)nc2c1NC(=O)[C@H](C)N2C [Compound 301, (7S)-4,7,8-trimethyl-2-(((3R,5S)-5-((3,4,5-trifluorophenoxy)methyl)tetrahydrofuran-3-yl)amino)-7,8-dihydropteridin-6(5H)-one] | < 300 nM |

same assay, conditions: Homo sapiens, COLO 205, 5 h, Colo 205 TCF/LEF luciferase reporter, five hours after addition of compound; read-out: TCF reporter Colo205 IC50

| Compound | IC50 |
| --- | --- |
| Cc1nc(N[C@H]2C[C@H](NC(=O)Nc3ccc(F)c(F)c3F)C2)nc2c1NC(=O)[C@H](C)N2C [Compound 461, 1-(2,3,4-trifluorophenyl)-3-(trans-3-(((S)-4,7,8-trimethyl-6-oxo-5,6,7,8-tetrahydropteridin-2-yl)amino)cyclobutyl)urea] | 1000 to 5000 nM |
| C#CC[C@H]1C(=O)N(C)c2cnc(NCc3cnn(Cc4cc(F)c(F)c(F)c4)c3)nc2N1C [Compound 25, (7S)-5,8-dimethyl-7-(prop-2-yn-1-yl)-2-(((1-(3,4,5-trifluorobenzyl)-1H-pyrazol-4-yl)methyl)amino)-7,8-dihydropteridin-6(5H)-one] | < 300 nM |
| Cc1nc(NCc2ccc(Nc3cnn(CC(F)(F)F)c3)nc2)nc2c1NC(=O)[C@H](C)N2C [Compound 126, (7S)-4,7,8-trimethyl-2-(((6-((1-(2,2,2-trifluoroethyl)-1H-pyrazol-4-yl)amino)pyridin-3-yl)methyl)amino)-7,8-dihydropteridin-6(5H)-one] | 1000 to 5000 nM |
| C#CC[C@H]1C(=O)N(C)c2cnc(NCc3cnn(Cc4ccc(F)cc4)c3)nc2N1C [Compound 26, (7S)-2-(((1-(4-fluorobenzyl)-1H-pyrazol-4-yl)methyl)amino)-5,8-dimethyl-7-(prop-2-yn-1-yl)-7,8-dihydropteridin-6(5H)-one] | < 300 nM |
| Cc1nc(N[C@H]2C[C@H](Oc3ccc(C(F)(F)F)cc3)C2)nc2c1NC(=O)[C@H](C)N2C [Compound 340, (7S)-4,7,8-trimethyl-2-((trans-3-(4-(trifluoromethyl)phenoxy)cyclobutyl)amino)-7,8-dihydropteridin-6(5H)-one] | < 300 nM |
| Cc1nc(NCc2cnn(Cc3ccc(F)c(F)c3)c2)nc2c1NC(=O)[C@H](C)N2C [Compound 140, (7S)-2-(((1-(3,4-difluorobenzyl)-1H-pyrazol-4-yl)methyl)amino)-4,7,8-trimethyl-7,8-dihydropteridin-6(5H)-one] | < 300 nM |
| CO[C@H](C)[C@H]1C(=O)Nc2c(C)nc(N[C@H]3C[C@H](Oc4cnc(C(F)(F)F)nc4)C3)nc2N1C [Compound 657, (S)-7-((R)—1-methoxyethyl)-4,8-dimethyl-2-((trans-3-((2-(trifluoromethyl)pyrimidin-5-yl)oxy)cyclobutyl)amino)-7,8-dihydropteridin-6(5H)-one] | < 300 nM |
| Cc1nc(NCc2cnn(C(C)c3ccc(F)cc3)c2)nc2c1NC(=O)[C@H](C)N2C (stereo partly drawn) [Compound 382, (7S)-2-(((1-(1-(4-fluorophenyl)ethyl)-1H-pyrazol-4-yl)methyl)amino)-4,7,8-trimethyl-7,8-dihydropteridin-6(5H)-one] | < 300 nM |
| Cc1nc(NC2CN(C(=O)c3ccc(C(F)(F)F)cc3)C2)nc2c1NC(=O)[C@H](C(C)C)N2C [Compound 622, (S)-7-isopropyl-4,8-dimethyl-2-((1-(4-(trifluoromethyl)benzoyl)azetidin-3-yl)amino)-7,8-dihydropteridin-6(5H)-one] | < 300 nM |
| Cc1nc(N[C@H]2C[C@@H](Nc3ncc(C(F)(F)F)cn3)C2)nc2c1NC(=O)[C@H](C(C)C)N2C [Compound 734, (S)-7-isopropyl-4,8-dimethyl-2-((cis-3-((5-(trifluoromethyl)pyrimidin-2-yl)amino)cyclobutyl)amino)-7,8-dihydropteridin-6(5H)-one] | 300 to 1000 nM |
| Cc1nc(N[C@H]2C[C@H](NC(=O)NC3CCC(F)(F)CC3)C2)nc2c1NC(=O)[C@H](C(C)C)N2C [Compound 524, 1-(4,4-difluorocyclohexyl)-3-(trans-3-(((S)-7-isopropyl-4,8-dimethyl-6-oxo-5,6,7,8-tetrahydropteridin-2-yl)amino)cyclobutyl)urea] | ≥ 5000 nM |
| Cc1nc(NCc2cnn(Cc3ccc(N(C)C)nc3)c2)nc2c1NC(=O)[C@H](C)N2C [Compound 196, (7S)-2-(((1-((6-(dimethylamino)pyridin-3-yl)methyl)-1H-pyrazol-4-yl)methyl)amino)-4,7,8-trimethyl-7,8-dihydropteridin-6(5H)-one] | 300 to 1000 nM |
| Cc1nc(NCc2cnn(C[C@@H](C)c3ccccc3)c2)nc2c1NC(=O)[C@H](C)N2C [Compound 89, (7S)-4,7,8-trimethyl-2-(((1-((S)-2-phenylpropyl)-1H-pyrazol-4-yl)methyl)amino)-7,8-dihydropteridin-6(5H)-one] | < 300 nM |
| Cc1nc(NCc2cnn(Cc3ccc(F)cc3Cl)c2)nc2c1NC(=O)[C@H](C)N2C [Compound 65, (7S)-2-(((1-(2-chloro-4-fluorobenzyl)-1H-pyrazol-4-yl)methyl)amino)-4,7,8-trimethyl-7,8-dihydropteridin-6(5H)-one] | < 300 nM |
| Cc1nc(N[C@H]2C[C@H](NC(=O)N(C)C3CCC(F)(F)CC3)C2)nc2c1NC(=O)[C@H](C(C)C)N2C [Compound 537, 1-(4,4-difluorocyclohexyl)-3-(trans-3-(((S)-7-isopropyl-4,8-dimethyl-6-oxo-5,6,7,8-tetrahydropteridin-2-yl)amino)cyclobutyl)-1-methylurea] | 1000 to 5000 nM |
| C[C@H]1C(=O)Nc2cnc(NCc3cnn(Cc4cccc(C(F)(F)F)c4)c3)nc2N1C [Compound 45, (7S)-7,8-dimethyl-2-(((1-(3-(trifluoromethyl)benzyl)-1H-pyrazol-4-yl)methyl)amino)-7,8-dihydropteridin-6(5H)-one] | < 300 nM |
| Cc1nc(NCc2cnn(Cc3ccc(Cl)nc3)c2)nc2c1NC(=O)[C@H](C(C)(C)C)N2C [Compound 438, (7S)-7-(tert-butyl)-2-(((1-((6-chloropyridin-3-yl)methyl)-1H-pyrazol-4-yl)methyl)amino)-4,8-dimethyl-7,8-dihydropteridin-6(5H)-one] | < 300 nM |
| [2H]C([2H])([2H])N1C(=O)[C@H](C)N(C)c2nc(N[C@H]3C[C@H](Oc4cc(F)c(F)c(F)c4)C3)nc(C)c21 [Compound 327, (7S)-4,7,8-trimethyl-5-(methyl-d3)-2-((trans-3-(3,4,5-trifluorophenoxy)-cyclobutyl)-amino)-7,8-dihydropteridin-6(5H)-one] | < 300 nM |
| C[C@H]1C(=O)Nc2cnc(N[C@H]3C[C@@H](COCc4ccc(F)cc4)C3)nc2N1C [Compound 288, (7S)-2-((cis-3-(((4-fluorobenzyl)oxy)methyl)cyclobutyl)amino)-7,8-dimethyl-7,8-dihydropteridin-6(5H)-one] | 300 to 1000 nM |
| Cc1nc(N[C@H]2C[C@@H](COc3cc(F)c(F)cc3F)C2)nc2c1NC(=O)[C@H](C)N2C [Compound 285, (7S)-4,7,8-trimethyl-2-((cis-3-((2,4,5-trifluorophenoxy)methyl)cyclobutyl)-amino)-7,8-dihydropteridin-6(5H)-one] | < 300 nM |
| Cc1nc(N[C@H]2C[C@H](Oc3ccc(OCC(F)(F)F)nc3)C2)nc2c1N(C)C(=O)[C@H](C)N2C [Compound 346, (7S)-4,5,7,8-tetramethyl-2-((trans-3-((6-(2,2,2-trifluoroethoxy)pyridin-3-yl)oxy)cyclobutyl)amino)-7,8-dihydropteridin-6(5H)-one] | 300 to 1000 nM |
| Cc1nc(NCc2cnn(Cc3ccc(Cl)nc3)c2)nc2c1NC(=O)[C@H](C)N2C [Compound 194, (7S)-2-(((1-((6-chloropyridin-3-yl)methyl)-1H-pyrazol-4-yl)methyl)amino)-4,7,8-trimethyl-7,8-dihydropteridin-6(5H)-one] | < 300 nM |
| Cc1nc(NCc2ccc(-c3ccc(F)cc3)o2)nc2c1NC(=O)[C@H](C)N2C [Compound 40, (7S)-2-(((5-(4-Fluorophenyl)furan-2-yl)methyl)amino)-4,7,8-trimethyl-7,8-dihydropteridin-6(5H)-one] | 1000 to 5000 nM |
| Cc1nc(N[C@H]2C[C@@H](COc3cnc(Cl)c(F)c3)C2)nc2c1NC(=O)[C@H](C)N2C [Compound 367, (7S)-2-((cis-3-(((6-chloro-5-fluoropyridin-3-yl)oxy)methyl)cyclobutyl)amino)-4,7,8-trimethyl-7,8-dihydropteridin-6(5H)-one] | < 300 nM |
| COc1cc(O[C@H]2C[C@H](Nc3nc(C)c4c(n3)N(C)[C@@H](C)C(=O)N4C)C2)ccc1F [Compound 373, (7S)-2-((trans-3-(4-fluoro-3-methoxyphenoxy)cyclobutyl)amino)-4,5,7,8-tetramethyl-7,8-dihydropteridin-6(5H)-one] | 300 to 1000 nM |
| Cc1nc(NC2CN(C(=O)c3cc(F)c(F)c(F)c3)C2)nc2c1NC(=O)[C@H](C)N2C [Compound 740, (S)-4,7,8-trimethyl-2-((1-(3,4,5-trifluorobenzoyl)azetidin-3-yl)amino)-7,8-dihydropteridin-6(5H)-one] | 300 to 1000 nM |
| Cc1nc(NCc2cnn(C[C@H](O)c3ccc(F)cc3)c2)nc2c1NC(=O)[C@H](C)N2C [Compound 132, (7S)-2-[[1-[(2R)-2-(4-fluorophenyl)-2-hydroxy-ethyl]pyrazol-4-yl]methylamino]-4,7,8-trimethyl-5,7-dihydropteridin-6-one] | 300 to 1000 nM |
| CO[C@H](C)[C@H]1C(=O)Nc2c(C)nc(N[C@H]3C[C@@H](CNc4cnc(C(F)(F)F)cn4)C3)nc2N1C [Compound 712, (S)-7-((R)—1-methoxyethyl)-4,8-dimethyl-2-((cis-3-(((5-(trifluoromethyl)pyrazin-2-yl)amino)methyl)cyclobutyl)amino)-7,8-dihydropteridin-6(5H)-one] | < 300 nM |
| Cc1nc(N[C@H]2C[C@H](Oc3cc(F)c(F)cc3F)C2)nc2c1N(C)C(=O)[C@H](C)N2C [Compound 294, (7S)-4,5,7,8-tetramethyl-2-((trans-3-(2,4,5-trifluorophenoxy)-cyclobutyl)amino)-7,8-dihydropteridin-6(5H)-one] | < 300 nM |

same assay, conditions: Homo sapiens, COLO 205, 5 h, R-isomer at C2 (corresponding to C2 S-isomer); Colo 205 TCF/LEF luciferase reporter, 5 h; read-out: TCF reporter Colo205 IC50

| Compound | IC50 |
| --- | --- |
| C[C@@H]1C(=O)N(C)c2cnc(NCc3cnn(Cc4ccc(F)cc4)c3)nc2N1C [Compound I-809] | 300 to 1000 nM |
